Earlier results as cited in US11400098B2, “Method of treating microbial infections” (priority 2011, dated 2022).

System: S. epidermidis
Settings: background statement

SMILES: O=C(OOC(=O)c1ccccc1)c1ccccc1 [BPO, benzoyl peroxide]
- effect on growth of S. epidermidis: strongly suppresses the growth
